# Source: patent EP4603105A1, “PHARMACEUTICAL COMPOSITION CONTAINING CYCLIC COMPOUND HAVING SELECTIVE KRAS INHIBITORY EFFECT AGAINST HRAS AND NRAS” (CHUGAI SEIYAKU KABUSHIKI KAISHA, priority 2022, dated 2024)
# Where a SMILES comes first, the peptide text is derived from it. Bridges are numbered along the chain shown (N, C = ends). [ ]: non-standard residue; d: D form. The star is where a group is joined. hPhe(3,5-F2-4-CF3) = N[C@@H](CCc1cc(F)c(C(F)(F)F)c(F)c1)C(=O)O; hPhe(3-Cl-4-CF3) = N[C@@H](CCc1ccc(C(F)(F)F)c(Cl)c1)C(=O)O; NPrPhe(4-CF3) = CCCN[C@@H](Cc1ccc(C(F)(F)F)cc1)C(=O)O; NMeGly(cPent) = CN[C@H](C(=O)O)C1CCCC1; Hyp = O=C(O)[C@@H]1C[C@@H](O)CN1; NMeD = CN[C@@H](CC(=O)O)C(=O)O; NMeL = CN[C@@H](CC(C)C)C(=O)O; αMeS = C[C@](N)(CO)C(=O)O; Morpholide = C1CN(*)CCO1; Ac5c = NC1(C(=O)O)CCCC1; Aze = O=C(O)[C@@H]1CCN1; Sar = CNCC(=O)O
# Experiments:
# [1] = molecular target: GDP-bound KRAS wild-type protein (Homo sapiens, UniProt P01116); test: Binding to KRAS by surface plasmon resonance (SPR), dissociation constant KD
# How it was run: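 Compound binding is evaluated by SPR single-cycle kinetics, with concentrations added intermittently from low to high for 75 s each. Target surfaces carry GDP-loaded biotinylated Avi-RAS at about 100–300 RU, regenerated after each cycle; temperature 30°C. A 1:1 binding model gives KD.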
# [2] = molecular target: GDP-bound NRAS wild-type protein (Homo sapiens, UniProt P01111); test: Binding to NRAS by surface plasmon resonance (SPR), KD and KD ratio to KRAS
# How it was run: (§1)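 Captured GDP-RAS (~100–300 RU) was exposed to increasing compound concentrations, 75 s per step, in running buffer with 10 µM GDP, 10 mM MgCl2 and 4% DMSO at pH 7.4.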
# [3] = molecular target: HRAS wild-type protein (Homo sapiens, UniProt P01112); test: Binding to HRAS by surface plasmon resonance (SPR), KD and KD ratio to KRAS
# How it was run: as §1
# [4] = test system: human lung cancer strain NCI-H441; type: cell-based
# How it was run: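 Step one: dispense the test compound in serial DMSO dilutions. Step three: add the reagent and measure […].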
# [5] = ratio of KD for GDP-bound NRAS wild-type protein to KD for KRAS
# [6] = ratio of KD for HRAS wild-type protein to KD for KRAS
# [7] = Single Cycle Kinetics, 1:1 binding model
# [8] = ratio of the KD value with respect to GDP-bound NRAS wild-type protein to the KD value with respect to KRAS
# [9] = ratio of the KD value with respect to HRAS wild-type protein to the KD value with respect to KRAS
# HRAS wild-type protein, sequence (P01112 whole entry): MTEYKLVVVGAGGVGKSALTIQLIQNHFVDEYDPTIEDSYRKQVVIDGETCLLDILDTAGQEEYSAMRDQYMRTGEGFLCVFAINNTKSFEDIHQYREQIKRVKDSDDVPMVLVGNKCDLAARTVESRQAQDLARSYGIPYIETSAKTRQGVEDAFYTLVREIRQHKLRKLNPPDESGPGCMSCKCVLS
# GDP-bound KRAS wild-type protein, sequence (P01116 1-188 isoform P01116-2): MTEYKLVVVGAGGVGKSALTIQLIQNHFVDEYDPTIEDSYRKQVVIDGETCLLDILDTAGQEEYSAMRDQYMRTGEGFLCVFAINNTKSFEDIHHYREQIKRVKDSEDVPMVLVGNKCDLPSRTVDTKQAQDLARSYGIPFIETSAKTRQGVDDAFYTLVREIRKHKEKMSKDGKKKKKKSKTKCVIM
# GDP-bound NRAS wild-type protein, sequence (P01111 whole entry): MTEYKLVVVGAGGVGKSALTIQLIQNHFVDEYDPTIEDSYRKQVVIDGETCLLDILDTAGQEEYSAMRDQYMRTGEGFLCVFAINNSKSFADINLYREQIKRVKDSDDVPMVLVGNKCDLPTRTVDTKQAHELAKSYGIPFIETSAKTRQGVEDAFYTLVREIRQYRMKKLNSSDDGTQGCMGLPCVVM
smiles,measurement,setting,value
CCO[C@@H]1C[C@H]2C(=O)NC3(CC(C)(C)C3)C(=O)N(C)[C@@H](C3CCCC3)C(=O)N(C)[C@H](C(=O)N(C)CC)CC(=O)N(C)[C@@H]([C@@H](C)OC)C(=O)N[C@@H]([C@@H](C)CC)C(=O)N3CCC[C@H]3C(=O)N(C)[C@H]3C/C=C\CCN(C3=O)[C@@H](Cc3ccc(C)cc3)C(=O)N(C)CC(=O)N[C@@H](CCc3ccc(C(F)(F)F)c(OC)c3)C(=O)N2C1 [PP3188],Kd,[1]; 1:1 binding model,0.00099 µM
same,NRAS /KRAS,[2]; [5],A (a compound having 10 or more and less than 20 is denoted as A)
same,HRAS /KRAS,[3]; [6],A (a compound having 10 or more and less than 20 is denoted as A)
same,IC50,[4],0.0647 µM
"CCCN1C(=O)CN(C)C(=O)[C@@H]2CCN2C(=O)[C@H]([C@@H](C)CC)NC(=O)[C@H](CC(C)C)N(C)C(=O)C[C@@H](C(=O)N2CCOCC2)N(C)C(=O)[C@H](C2CCCC2)N(C)C(=O)[C@](C)(COC)NC(=O)[C@@H]2CCCN2C(=O)[C@H](CCc2cc(F)c(C(F)(F)F)c(F)c2)NC(=O)CN(C)C(=O)[C@@H]1Cc1ccc(C(F)(F)F)cc1 [PP0779] ([NMeL]I[Aze][Sar][NPrPhe(4-CF3)][Sar][hPhe(3,5-F2-4-CF3)]P[αMeS](Me)[NMeGly(cPent)][NMeD]-Morpholide; lactam N-11)",Kd,[1]; Single Cycle Kinetics,0.0051 µM
same,NRAS /KRAS,[2]; [5],B (a compound having 3 or more and less than 10 is denoted as B)
same,HRAS /KRAS,[3]; [6],B (a compound having 3 or more and less than 10 is denoted as B)
same,IC50,[4],0.364 µM
CCCOC[C@H]1C(=O)N[C@@H]([C@@H](C)CC)C(=O)N(C)CC(=O)N(C)[C@H]2C/C=C\CCN(C2=O)[C@@H](Cc2ccc(C)cc2)C(=O)N(C)CC(=O)N[C@@H](CCc2cc(F)c(C(F)(F)F)c(F)c2)C(=O)N2C[C@H](C)C[C@H]2C(=O)NC2(CCCC2)C(=O)N(C)[C@@H](C2CCCC2)C(=O)N(C)[C@H](C(=O)N(C)C)CC(=O)N1C [PP2225],Kd,[1]; [7],0.0002 µM
same,NRAS /KRAS,[2]; [8],A (a compound having 10 or more and less than 20 is denoted as A)
same,HRAS /KRAS,[3]; [9],A (a compound having 10 or more and less than 20 is denoted as A)
same,IC50,[4],0.0414 µM
CCO[C@@H]1C[C@H]2C(=O)NC3(CCCC3)C(=O)N(C)[C@@H](C3CCCC3)C(=O)N(C)[C@H](C(=O)N3CCOCC3)CC(=O)N(C)[C@@H](CC(C)C)C(=O)N[C@@H]([C@@H](C)CC)C(=O)N(C)CC(=O)N(C)[C@H]3CCCCCN(C3=O)[C@@H](Cc3ccc(F)cc3)C(=O)N(C)CC(=O)N[C@@H](CCc3ccc(C(F)(F)F)c(Cl)c3)C(=O)N2C1 [PP0965],Kd,[1]; Single Cycle Kinetics,0.00057 µM
same,NRAS /KRAS,[2]; [5],B (a compound having 3 or more and less than 10 is denoted as B)
same,HRAS /KRAS,[3]; [6],B (a compound having 3 or more and less than 10 is denoted as B)
same,IC50,[4],0.0488 µM
CCCN1C(=O)CN(C)C(=O)[C@@H]2CCN2C(=O)[C@H]([C@@H](C)CC)NC(=O)[C@H](CC(C)C)N(C)C(=O)C[C@@H](C(=O)N2CCOCC2)NC(=O)[C@H](C2CCCC2)N(C)C(=O)C2(CCCC2)NC(=O)[C@@H]2C[C@@H](OCC)CN2C(=O)[C@H](CCc2ccc(C(F)(F)F)c(Cl)c2)NC(=O)CN(C)C(=O)[C@@H]1Cc1ccc(C(F)(F)F)cc1 [PP0341] ([NMeL]I[Aze][Sar][NPrPhe(4-CF3)][Sar][hPhe(3-Cl-4-CF3)][Hyp](Et)[Ac5c][NMeGly(cPent)]D-Morpholide; lactam N-11),Kd,[1]; 1:1 binding model,0.0014 µM
same,NRAS /KRAS,[2]; [5],B (a compound having 3 or more and less than 10 is denoted as B)
same,HRAS /KRAS,[3]; [6],B (a compound having 3 or more and less than 10 is denoted as B)
same,IC50,[4],0.135 µM
CCO[C@@H]1C[C@H]2C(=O)NC3(CC(C)(C)C3)C(=O)N(C)[C@@H](C3CCCC3)C(=O)N(C)[C@H](C(=O)N(C)C)CC(=O)N(C)[C@@H]([C@H](C)OC)C(=O)N[C@@H]([C@@H](C)CC)C(=O)N3CCC[C@H]3C(=O)N(C)[C@H]3C/C=C\CCN(C3=O)[C@@H](Cc3ccc(C(F)(F)F)cc3)C(=O)N(C)CC(=O)N[C@@H](CCc3ccc(C(F)(F)F)c(Cl)c3)C(=O)N2C1 [PP3183],Kd,[1]; 1:1 binding model,0.0012 µM
same,NRAS /KRAS,[2]; [5],B (a compound having 3 or more and less than 10 is denoted as B)
same,HRAS /KRAS,[3]; [6],B (a compound having 3 or more and less than 10 is denoted as B)
same,IC50,[4],0.0636 µM
CCCOC[C@H]1C(=O)N[C@@H]([C@@H](C)CC)C(=O)N(C)CC(=O)N(C)[C@H]2C/C=C\CCN(C2=O)[C@@H](Cc2ccc(C)cc2)C(=O)N(C)CC(=O)N[C@@H](CCc2cc(F)c(C(F)(F)F)c(F)c2)C(=O)N2C[C@H](CC)C[C@H]2C(=O)NC2(CCCC2)C(=O)N(C)[C@@H](C2CCCC2)C(=O)N(C)[C@H](C(=O)N(C)C)CC(=O)N1C [PP2218],Kd,[1]; [7],0.00029 µM
same,NRAS /KRAS,[2]; [8],A (a compound having 10 or more and less than 20 is denoted as A)
same,HRAS /KRAS,[3]; [9],A (a compound having 10 or more and less than 20 is denoted as A)
same,IC50,[4],0.024 µM
